Measurements published in patent US20110275684A1, “NOVEL BENZOTRIAZOLE DERIVATIVES USEFUL FOR THE TREATMENT OF CNS DISORDERS” (NEUROSEARCH A/S, priority 2009, published 2011).

System: psychomotor seizures induced via corneal stimulation (6 Hz) in female NMRI mice
Test: 6 Hz electroshock seizure model (anticonvulsant properties)
Format: in vivo
Conditions: Mus musculus, po, 32 mA, 3 s corneal stimulation, p.o., pretreatment time 60 mins, vehicle 5% cremaphor, read-out: ED50 (dose that would give a 50% protection from seizures)
Description: The animal models being used for the discovery of novel antiepileptic drugs are numerous. Among these, a low frequency (6 Hz) electroshock seizure model has recently come into the limelight as a potential model of pharmacoresistant epilepsy (see Epilepsy: a comprehensive textbook, pag. 1477, by By Jerome Engel, Timothy A. Pedley, Jean Aicardi, Marc A Dichter, Solomon Moshé—2007—Medical), and it is therefore an animal model of primary interest in antiepileptic drug discovery. The compounds of the invention have shown remarkable activity to protect against 6 Hz seizures.
The evaluation of the anticonvulsant properties was carried out in female NMRI mice (20-25 g, Taconic, Denmark). The mice were housed in groups (8 per cage according to weight) with food and water available ad libitum The environment was temperature (20±2° C.) and humidity (55±15%) controlled, and consisted of a 12:12 h light-dark cycle (lights on 06:00 h). The experiments were performed according to the Danish Committee for Experiments on Animals. […]
For screening purposes, the test compound was tested at 1 dose at 1 time-point. In the case of protection of 3 or more out of 8 mice, the compound were further evaluated in dose response (N=8/group). […]

Structure (SMILES) | ED50 [mg/kg]
CC[C@@H](C(N)=O)n1nnc2cc(Br)ccc21 [Compound 12, (2S)-2-(5-Bromobenzotriazol-1-yl)butanamide] | 38
CCC(C(N)=O)n1nnc2ccccc21 (racemic) [Compound 1, 2-Benzotriazol-1-yl-butyramide] | 38

System: not given
Test: not given
Conditions: not given

Structure (SMILES) | melting point [°C]
CC[C@H](C(N)=O)n1nnc2c(F)cccc21 [Compound 23, (2R)-2-(4-Fluorobenzotriazol-1-yl)butanamide] | 162.5 to 163.7
CCC(C(N)=O)n1nnc2c(F)cc(F)cc21 (stereo not drawn) [Compound 7, 2-(4,6-Difluoro-benzotriazol-1-yl)-butyramide] | 199 to 200.5
Brc1ccc2c(c1)nnn2Cc1c[nH]cn1 | 178.3 to 180.8
CC(C(N)=O)n1nnc2cc(F)ccc21 (stereo not drawn) [Compound 11, 2-(5-Fluoro-benzotriazol-1-yl)-propionamide] | 138.6 to 140.1
CC[C@@H](C(N)=O)n1nnc2cc(Cl)ccc21 [Compound 18, (2S)-2-(5-Chlorobenzotriazol-1-yl)butanamide] | 175.5 to 177.5
CCC(C(N)=O)n1nnc2ccc(Br)cc21 (stereo not drawn) [Compound 3, 2-(6-Bromo-benzotriazol-1-yl)-butyramide] | 181.2 to 182.1
CCC(C(N)=O)n1nnc2cc(F)cc(F)c21 (stereo not drawn) [Compound 6, 2-(5,7-Difluoro-benzotriazol-1-yl)-butyramide] | 155 to 156.3
CC[C@@H](C(N)=O)n1nnc2c(F)cccc21 [Compound 24, (2S)-2-(4-Fluorobenzotriazol-1-yl)butanamide] | 163.9 to 165.1
CC[C@H](C(N)=O)n1nnc2cc(Br)ccc21 [Compound 21, (2R)-2-(5-Bromobenzotriazol-1-yl)butanamide] | 206.2 to 207.3
NC(=O)Cn1nnc2cc(Br)ccc21 [Compound 13, 2-(5-Bromo-benzotriazol-1-yl)-acetamide] | 221.5 to 222.5
CS(=O)(=O)c1ccc2nnn(CC(N)=O)c2c1 [Compound 5, 2-(6-Methanesulfonyl-benzotriazol-1-yl)-acetamide] | 241.8 to 242.7
CC[C@@H](C(N)=O)n1nnc2c(Cl)cccc21 [Compound 15, (2S)-2-(4-Chlorobenzotriazol-1-yl)butanamide] | 153 to 154.5
CC(C)CC(C(N)=O)n1nnc2ccccc21 (stereo not drawn) [Compound 17, 2-(Benzotriazol-1-yl)-4-methyl-pentanamide] | 177.5 to 178.8
CC(C)[C@@H](C(N)=O)n1nnc2ccccc21 [Compound 16, (2S)-2-(Benzotriazol-1-yl)-3-methyl-butanamide] | 164 to 165.7
CC(C(N)=O)n1nnc2ccc(F)cc21 (stereo not drawn) [Compound 10, 2-(6-Fluoro-benzotriazol-1-yl)-propionamide] | 156.8 to 158
NC(=O)Cn1nnc2cc(F)cc(F)c21 [Compound 8, 2-(5,7-Difluoro-benzotriazol-1-yl)-acetamide] | 236.5 to 238
Fc1cc(F)c2nnn(Cc3ncc[nH]3)c2c1 | 166 to 167.5
NC(=O)Cn1nnc2c(F)cc(F)cc21 [Compound 9, 2-(4,6-Difluoro-benzotriazol-1-yl)-acetamide] | 247.8 to 248.9
c1ccc2c(c1)nnn2Cc1c[nH]cn1 | 137.8 to 138.9
